Measurements from US8853215B2, “Derivatives of N-acyl-N′-phenylpiperazine useful (inter alia) for the prophylaxis or treatment of diabetes” (Takeda Pharmaceutical Company Limited, priority 2009, dated 2014).

How the values were obtained:
human RBP4 = human RBP4 (Homo sapiens (Human), UniProt P02753); experiment: Binding assay by Retinol-RBP4-TTR ELISA; conditions: at 10 μM compound; read-out: human RBP4 binding inhibitory activity(% at 10 μM)
Method: The action of the compound of the present invention to inhibit binding of RBP4 and retinol and TTR was evaluated using the Retinol-RBP4-TTR ELISA system shown below.
1F: Binding Assay by Retinol-RBP4-TTR ELISA
This ELISA system detects a complex of RBP4 and TTR based on a retinol-dependent binding of RBP4 to TTR.
His-tagged human RBP4 used was prepared in the above-mentioned 1C.
Biotinylate human TTR used was prepared in the above-mentioned 1E.
Streptavidin (20 μl) (10 μg/ml Streptavidin type II (Wako Pure Chemical Industries, Ltd.), 10 mM Tris-HCl (pH 7.5), 10 mM NaCl) was added to a 384 well black plate (Nunc MaxiSorp, Thermo Fisher Scientific Inc.), and the plate was subjected to centrifugation (1000 rpm, 1 min) and coated overnight at 4° C. The plate was washed twice with PBST (PBS, 0.05% Tween 20, 100 μl/well) and blocked with 25% Block Ace (Snow Brand Milk Products Co., Ltd., PBS, 100 μl/well). The plate was subjected to centrifugation (1000 rpm, 1 min) and incubated at room temperature for 4 hr or overnight at 4° C. The plate was washed twice with PBST (PBS, 0.05% Tween 20, 100 μl/well), and biotinylate human TTR (stock solution concentration 1.0 mg/ml) diluted 750-fold with PBST was added at 20 μl/well. The plate was subjected to centrifugation (1000 rpm, 1 min) and stood still at room temperature for 1.5 hr or overnight at 4° C. The plate was washed 3 times with PBST (100 μl/well), and His-tagged human RBP4 (stock solution concentration 0.96 mg/ml) diluted 4000-fold with a reaction buffer (50 mM Tris-HCl, 150 mM NaCl, 0.005% Tween 20, 1 mM DTT, 0.1% BSA) was added at 10 μl/well. The dilution series (8 doses from 10 mM, 200-fold concentration) of the compound was prepared with DMSO, and 1 μl of each was added to a reaction buffer (200 μl) containing retinol (50 nM) (Sigma-Aldrich Co.). A reaction buffer (200 μl) containing retinol and added with DMSO was used as a positive control, and reaction buffer (200 μl) free of retinol and added with DMSO was used as a negative control. Mixed solutions of retinol and the compound were added to the plate at 15 μl/well. The plate was stirred in a platemixer subjected to centrifugation (1000 rpm, 1 min) and reacted at room temperature for 2 hr. A 35% Block Ace solution diluted with the reaction buffer was added at 10 μl/well, centrifuged (1000 rpm, 1 min) and reacted at room temperature for 30 min. The plate was washed 3 times with PBST (100 μl/well) and SuperSignal ELISA Femto Maximum Sensitivity Substrate reagent (PIERCE, Thermo Fisher Scientific Inc.) was added at 30 μl/well, and the luminescence was measured by a platereader (Wallac).
The binding inhibitory activity of the compound was determined by 100×(positive control value-test compound value)/(positive control value-negative control value). The binding activity (IC50) was calculated from the binding inhibitory rate at each compound concentration using a graph drawing software, GraphPad Prism (GraphPad Software Inc.).

RBP4 = RBP4 (Mus musculus (Mouse), UniProt Q00724); experiment: Single administration test in mice, plasma RBP4 by ELISA; type: in vivo; conditions: male C57BL/6J or ICR mice, 50 mg/kg oral single dose, mean±SD; for RBP4 (% of initial/Control) 0 hr: 0 hr (just before the administration); for RBP4 (% of initial/Control) 4 hr: 4 hr after administration; for RBP4 (% of initial/Control) 7 hr: 7 hr after administration; for RBP4 (% of initial/Control) 24 hr: 24 hr after administration
Method: The action of the compounds of the present invention to reduce plasma RBP4 level was evaluated using the animal model shown below.
Male C57BL/6J and ICR mice were purchased from Charles River (Japan) and maintained on a normal diet (CE2, CLAE Japan, Inc.) and tap water. Animals were housed in a temperature-controlled room adjusted to a 12-hour light/12-hour dark cycle beginning at 7:00 and 19:00, respectively. All procedures were conducted according to the experimental animal care use committee of Takeda Pharmaceutical Company.
Male 6-12-week-old C57BL/6J or ICR mice were housed individually and fed CE2 for 4-6 days. After acclimatization, mice were divided into groups based on their body weight. Compounds were suspended in 0.5% (w/v) methylcellulose in water and given orally to mice at a dose of 50 mg/10 mL/kg of body weight (three to five mice per group). Blood samples were obtained from orbital vein with sodium heparin as an anticoagulant at time 0 hr (just before the administration), 4 hr, 7 hr, and 24 hr after the administration, followed by plasma separation by centrifugation. Plasma RBP4 levels were measured by enzyme-linked immunosorbent assay described in the following section.
Plasma samples were analyzed in duplicate for RBP4 by an enzyme-linked immunosorbent assay. Mouse recombinant RBP4 (Takeda Pharmaceutical Company) was used as standards, and the assay range was 0.313-20 ng/ml. Samples were diluted 10,000-fold with phosphate-buffered saline (PBS) (Sigma) containing 10% (w/v) BlockAce (Dainippon Sumitomo Pharma Co., Ltd). Rabbit anti-RBP4 polyclonal antibody (100 μL/well of 50 μg/mL, Hokudo Co, Ltd) was incubated in a 96-well plate (Nalge Nunc International K.K.) for overnight at 4° C. Subsequently, the plates were washed with PBS-T (Wako Pure Chemical Industries, Ltd.) and blocked with PBS containing 25% BlockAce for 1 hr at room temperature. After another washing with PBS-T, samples and standards were applied to the well, and the plates were incubated for 2 hr at room temperature. After a washing the wells, peroxidase-labeled (Dojindo Laboratories) anti-RBP4 (100 μL/well) was added to the wells, and then the plates were incubated for 1 hr at room temperature. After a final washing with PBS-T, substrate solution 3,3,5,5-tetramethylbenzidine (Sigma) was added to the wells, and the plates were placed in the dark for 5-20 min at room temperature. The reaction was stopped with 0.5 M sulphuric acid and the optical density was measured with a spectrophotometer at 450 nm. The changes in plasma RBP4 levels were expressed as % of initial/Control. All data are presented as mean±SD.

Row | SMILES | inhibition at 10 µM (human RBP4) [%] | RBP4 (% of initial/Control) 0 hr (RBP4) | RBP4 (% of initial/Control) 4 hr (RBP4) | RBP4 (% of initial/Control) 7 hr (RBP4) | RBP4 (% of initial/Control) 24 hr (RBP4)
1 | CC(C)(C)c1cc(Cl)ccc1N1CCN(C(=O)C(=O)O)CC1 [Example 180, [4-(2-tert-Butyl-4-chlorophenyl)piperazin-1-yl](oxo)acetic acid] | 100 | 100.0 ± 23.0 % of initial/Control | 63.0 ± 2.0 % of initial/Control | 61.0 ± 2.2 % of initial/Control | 93.0 ± 9.6 % of initial/Control
2 | CC(C)(C)c1ccccc1N1CCN(C(=O)C(=O)N2CCC(C(=O)O)C2)CC1 (stereo not drawn) [Example 191, 1-{[4-(2-tert-Butylphenyl)piperazin-1-yl](oxo)acetyl}pyrrolidine-3-carboxylic acid] | 100 | 100.0 ± 8.0 % of initial/Control | 65.0 ± 2.2 % of initial/Control | 61.2 ± 2.3 % of initial/Control | 127.6 ± 40.9 % of initial/Control
3 | CC(C)(C)c1ccccc1N1CCN(C(=O)C(=O)Nc2ccc(CCC(=O)O)cc2)CC1 [Example 197, 3-[4-({[4-(2-tert-Butylphenyl)piperazin-1-yl](oxo)acetyl}amino)phenyl]propanoic acid] | 100 | 100.0 ± 22.3 % of initial/Control | 72.2 ± 3.6 % of initial/Control | 67.0 ± 1.8 % of initial/Control | 91.3 ± 15.9 % of initial/Control
4 | CC(C)(C)c1ccccc1N1CCN(C(=O)C(=O)Nc2ccc(OCC(=O)O)cc2)CC1 [Example 201, [4-({[4-(2-tert-Butylphenyl)piperazin-1-yl](oxo)acetyl}amino)phenoxy]acetic acid] | 99 | 100.0 ± 9.8 % of initial/Control | 65.0 ± 0.7 % of initial/Control | 60.3 ± 1.0 % of initial/Control | 100.2 ± 13.6 % of initial/Control
5 | CC(C)(C)c1ccccc1N1CCN(C(=O)C(=O)NCCc2ccc(C(=O)O)cc2)CC1 [Example 203, 4-[2-({[4-(2-tert-Butylphenyl)piperazin-1-yl](oxo)acetyl}amino)ethyl]benzoic acid] | 100 | 100 ± 2.82 % of initial/Control | 43.4 ± 1.8 % of initial/Control | 37.2 ± 1.0 % of initial/Control | 107.9 ± 15.6 % of initial/Control

Second part, the molecule after the results:

Row | inhibition at 10 µM (human RBP4) [%] | RBP4 (% of initial/Control) 0 hr (RBP4) | RBP4 (% of initial/Control) 4 hr (RBP4) | RBP4 (% of initial/Control) 7 hr (RBP4) | RBP4 (% of initial/Control) 24 hr (RBP4) | SMILES
6 | 100 | 100.0 ± 18.9 % of initial/Control | 66.3 ± 5.7 % of initial/Control | 75.0 ± 10.8 % of initial/Control | 125.7 ± 20.9 % of initial/Control | Cc1nc(C(=O)N2CCN(c3ccccc3C(C)(C)C)CC2)cn1CC(=O)O [Example 205, (4-{[4-(2-tert-Butylphenyl)piperazin-1-yl]carbonyl}-2-methyl-1H-imidazol-1-yl)acetic acid]
7 | 100 | 100.0 ± 27.4 % of initial/Control | 43.1 ± 1.7 % of initial/Control | 37.6 ± 0.7 % of initial/Control | 52.0 ± 2.8 % of initial/Control | CC(C)(C)c1cc(Cl)ccc1N1CCN(C(=O)CC(=O)O)CC1 [Example 207, 3-[4-(2-tert-Butyl-4-chlorophenyl)piperazin-1-yl]-3-oxopropanoic acid]
8 | 99 | 100.0 ± 10.5 % of initial/Control | 55.3 ± 4.0 % of initial/Control | 54.9 ± 8.8 % of initial/Control | 97.6 ± 24.5 % of initial/Control | CC(C)(C)c1cc(Cl)ccc1N1CCN(C(=O)c2ccc(OCC(=O)O)cn2)CC1 [Example 210, [(6-{[4-(2-tert-Butyl-4-chlorophenyl)piperazin-1-yl]carbonyl}pyridin-3-yl)oxy]acetic acid]
9 | 100 | 100.0 ± 16.6 % of initial/Control | 43.4 ± 4.7 % of initial/Control | 36.9 ± 1.0 % of initial/Control | 66.4 ± 28.1 % of initial/Control | CC(C)(C)c1ccccc1N1CCN(C(=O)c2cc(OCC(=O)O)no2)CC1 [Example 216, [(5-{[4-(2-tert-Butylphenyl)piperazin-1-yl]carbonyl}isoxazol-3-yl)oxy]acetic acid]
